Results reported in paper PMC10424187, “Structure-Guided Design and Synthesis of a Pyridazinone Series of Trypanosoma cruzi Proteasome Inhibitors” (Journal of Medicinal Chemistry, 2023).
Several values for one entry are separate records, joined by “and”; a condition that tells them apart may be missing. Equal entries are not always repeated.

Legend:
[1] = test system: intracellular T. cruzi X10/7 A1 amastigotes
Human 20S proteasome = Human 20S proteasome (Homo sapiens, UniProt P28074+P49721); assay: human proteasome assay (chymotrypsin-like activity, Suc-LLVY-Rho-110-DPro); details: for Emax: read-out: Hs Prot Max Response (%), individual replicate
Method: T. cruzi and human proteasome assays
(§1) The T. cruzi proteasome was partially purified as described in the above reference and Human
(§2) 20S proteasome was purchased from Boston Biochem (now R&D Systems, catalogue number
(§3) a Tecan Fluent to titrate over 11 points in Labcyte Echo-compatible Greiner Bio-One 384 well
(§4) polypropylene microplates. Subsequently, 100 nl of test compound titrations were transferred
(§5) to black Greiner Bio-One low volume 384 well microplates using a Labcyte Echo acoustic
(§6) 50 mM HEPES pH 7.5, 150 mM sodium chloride, 5% Glycerol, 1 mM dithiothreitol, 1 mM
(§7) CHAPS in deionised, filtered water (all chemicals purchased from Sigma Aldrich). Human 20S
(§8) These enzyme solutions were prepared immediately prior to assay initiation and stored at 4 °C
(§9) To monitor the Chymotrypsin-like activity of the T. cruzi and Human 20S proteasome proteins
(§10) a self-quenched, Rhodamine 110-labelled peptide with the sequence Suc-LLVY-Rho-110-
(§11) DPro was used (prepared by Cambridge Research Biochemicals. Suc is succinyl, while DPro
(§12) refers to ᴅ-proline). The peptide was initially prepared from solid as a 10 mM solution in 100%
(§13) DMSO and stored at -20 °C. Prior to use in the assay, an aliquot was thawed at room
(§14) to twofold Km. For use with the Human 20S proteasome, the Suc-LLVY-Rho-110-DPro
(§15) peptide was diluted in assay buffer to a concentration equivalent to twofold Km, which for this
(§16) enzyme was 2 μM. The peptide solutions were protected from light and stored at 4 °C before
(§17) A Multidrop Micro (Thermo Fisher), using a low volume dispense cassette, was used to add
(§18) the assay solutions to the test compounds in the low volume 384-well microplates. Prior to
(§19) addition of proteasome solution, 5 μl of assay buffer was added to one column (containing 100
(§20) nl, 100% DMSO) to act as no enzyme control to mimic full inhibition. Subsequently, 5 μl of
(§21) proteasome solution (either T. cruzi or Human 20S) was added to all wells on the test
(§22) microplate apart from the column containing 5 μl assay buffer. The microplate was then spun
(§23) using a suitable bench top centrifuge for 1 minute at 1000 rpm, before incubation at room
(§24) Following the initial incubation, 5 μl of substrate solution was then added to all wells on the
(§25) test microplate using a Multidrop Micro equipped with a discrete low volume dispense cassette.
(§26) The test microplates were then spun for 10 seconds at 1000 rpm before being rapidly moved to
(§27) a multi-mode microplate reader, capable of monitoring fluorescence intensity. The microplate
(§28) reader used for these studies was a Tecan M1000 Pro, equipped with quad monochromators.
(§29) 530 ± 5 nm. A series of fluorescence intensity measurements were taken every 30 seconds for
(§30) Subsequently, the fluorescence intensity measurements (relative fluorescence units, RFU) were
(§31) fit to a simple linear regression model (y = A + Bx, where y refers to the fluorescence intensity
(§32) and x refers to the time in seconds) to determine the initial rate of reaction. The initial rate for
(§33) every compound concentration tested was then fit a 4-parameter logistic model: y = (A + (B -
(§34) A)) / (1 + (x / C)D), where y refers to the assay response, x refers to the inhibitor concentration,
(§35) A and B are the range values (minimum and maximum, respectively), C is the IC50 value and
(§36) D is the slope. Potency values were then reported as pIC50, which is the negative log of the
(§37) IC50 (on a molar scale). Data analysis was automated and carried out using the ActivityBase

T. cruzi proteasome = T. cruzi proteasome (Trypanosoma cruzi, UniProt V5BU39+V5C017); assay: T. cruzi proteasome assay (chymotrypsin-like activity, Suc-LLVY-Rho-110-DPro); details: for Tc Prot Hill Slope / Tc Prot Max Response (%): individual replicate; for T. cruzi Prot pIC50: mean of at least three independent replicates; for Emax: read-out: Tc Prot Max Response (%), individual replicate
Sequence of T. cruzi proteasome (V5BU39 entry or part of it): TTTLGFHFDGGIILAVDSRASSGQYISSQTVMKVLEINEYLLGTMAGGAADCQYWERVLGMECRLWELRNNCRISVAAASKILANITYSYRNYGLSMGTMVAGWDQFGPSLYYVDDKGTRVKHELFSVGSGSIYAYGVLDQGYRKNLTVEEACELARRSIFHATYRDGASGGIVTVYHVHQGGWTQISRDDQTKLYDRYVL
Sequence of T. cruzi proteasome (V5C017 entry or part of it): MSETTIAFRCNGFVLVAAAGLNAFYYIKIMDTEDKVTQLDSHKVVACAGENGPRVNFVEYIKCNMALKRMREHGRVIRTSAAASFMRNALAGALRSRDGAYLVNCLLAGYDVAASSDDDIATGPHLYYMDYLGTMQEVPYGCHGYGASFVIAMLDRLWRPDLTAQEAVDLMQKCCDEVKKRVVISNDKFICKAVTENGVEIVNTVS
Method: T. cruzi and human proteasome assays
as §1, §2, §3, §4, §5, §6, §7, §8, §9, §10, §11, §12, §13, §14, §15, §16, §17, §18, §19, §20, §21, §22, §23, §24, §25, §26, §27, §28, §29, §30, §31, §32, §33, §34, §35, §36, §37

[2] = Mouse microsomal intrinsic clearance; assay type: in vitro ADME; details: mouse liver microsomes, scaling 52.5 mg microsomal protein/g liver
Method: Mouse microsomal intrinsic clearance.
This assay was conducted as previously described:
J.; Reid, I. H.; Hill, A. P.;
were prepared by adding a volume (5 µL) of the 10 mM solution to a volume (195 µL) of […]

ChromLogD = assay type: physicochemical; details: pH 7.4; read-out: Chrom LogDpH7.4
Method: Chrom LogD was measured as previously described:
solubility and hydrophobicity. Drug Discov. Today 2010, 15, 648−655. […]

[3] = mean of at least three independent replicates
[4] = T. cruzi Prot pIC50, mean of at least three independent replicates
[5] = Tc Prot pIC50, individual replicate

SMILES	EC50 [1]	Emax [1]	Hs Prot Max Response (%) (Human 20S proteasome; individual replicate)	Hs Prot pIC50 (Human 20S proteasome; individual replicate)	Hs Prot pIC50 (Human 20S proteasome; [3])	IC50 (T. cruzi proteasome; [4])	Tc Prot Hill Slope (T. cruzi proteasome)	Tc Prot Max Response (%) (T. cruzi proteasome)	Mouse CLi [2]	chromatographic logD (ChromLogD)	IC50 (T. cruzi proteasome; [5])	T. cruzi Prot pIC50 (T. cruzi proteasome)	Emax (T. cruzi proteasome)	EC50 (host VERO cells)	Emax (host VERO cells)	Emax (Human 20S proteasome)
O=C(NC1CC1)c1cccc(NC(=O)c2ccc(=O)n(Cc3ccccc3)n2)c1 [Compound 5, 1-Benzyl-N-(3-(cyclopropylcarbamoyl)phenyl)-6-oxo-1,6-dihydropyridazine-3-carboxamide]	7940 nM	73% and 75% and 70% and 81% and 55% and 80% and 83%	18% and 4% and 2% and 9% and 19% and 28% and 3% and 8% and 12% and 13% and 11% and 20% and 10% and 15%	< 4	<4	631 nM	0.5 and 0.8 and 0.9 and 1.1 and 0.95 and 1.0 and 0.74 and 0.7 and 0.6	105% and 88% and 77% and 79% and 81% and 80% and 73% and 74% and 75% and 78%								
CN(C(=O)c1ccc(=O)n(Cc2ccccc2)n1)c1cccc(C(=O)NC2CC2)c1 [Compound 6, 1-Benzyl-N-(3-(cyclopropylcarbamoyl)phenyl)-N-methyl-6-oxo-1,6-dihydropyridazine-3-carboxamide]	> 50100 nM		28% and 21% and 6%	< 4	<4	> 100000 nM			11 mL/min/g	3.3	> 100000 nM	complete loss of activity	30%			
CN(C(=O)c1cccc(NC(=O)c2ccc(=O)n(Cc3ccccc3)n2)c1)C1CC1 [Compound 7, 1-Benzyl-N-(3-(cyclopropyl(methyl)carbamoyl)phenyl)-6-oxo-1,6-dihydropyridazine-3-carboxamide]	> 50100 nM	42%	20% and 27% and 10%	< 4	<4	20000 nM	0.8 and 0.75	75% and 49% and 40% and 61%	19 mL/min/g	4.5	25100 nM and > 100000 nM and 15800 nM			> 50100 nM	11%	
O=C(Nc1cccc(C(=O)NC2CC2)c1)c1ccc(=O)n(Cc2ccccc2)c1 [Compound 8, 1-Benzyl-N-(3-(cyclopropylcarbamoyl)phenyl)-6-oxo-1,6-dihydropyridine-3-carboxamide]	> 50100 nM		12% and 6%	< 4	<4	1580 nM	1.0 and 0.9	85% and 77%	0.8 mL/min/g	3.3	2510 nM and 2000 nM and 794 nM		80%	> 50100 nM and 39800 nM and 25100 nM		10%
O=C(Nc1ccc(F)c(C(=O)NC2CC2)c1)c1ccc(=O)n(CC2CCCCC2)n1 [Compound 11, 1-(Cyclohexylmethyl)-N-(3-(cyclopropylcarbamoyl)-4-fluorophenyl)-6-oxo-1,6-dihydropyridazine-3-carboxamide]	7940 nM and 10000 nM and 5010 nM and 6310 nM	84% and 78% and 86% and 88%	13% and 33%	< 4	<4	398 nM	0.9 and 0.85	87%	7.3 mL/min/g	5.3	501 nM and 316 nM		78%	> 50100 nM	11%	
COc1cccc(Cn2nc(C(=O)Nc3ccc(F)c(C(=O)NC4CC4)c3)ccc2=O)c1 [Compound 13, N-(3-(Cyclopropylcarbamoyl)-4-fluorophenyl)-1-(3-methoxybenzyl)-6-oxo-1,6-dihydropyridazine-3-carboxamide]	> 50100 nM	23%	7%	< 4	<4	> 100000 nM		2% and 10%	25 mL/min/g	5.5	> 100000 nM	complete loss of potency				9%
COc1ccc(Cn2nc(C(=O)Nc3ccc(F)c(C(=O)NC4CC4)c3)ccc2=O)cc1F [Compound 15, N-[3-(Cyclopropylcarbamoyl)-4-fluorophenyl]-1-[(3-fluoro-4-methoxy-phenyl)methyl]-6-oxo-pyridazine-3-carboxamide]	158 nM	95% and 98% and 93% and 90% and 85% and 94% and 89% and 88%	17% and 16% and 19% and 12% and 6% and 8% and 5% and 1%	< 4	<4											
COc1ccc(Cn2nc(C(=O)Nc3ccc(F)c(C(=O)N[C@H]4C[C@H](OC)C4)c3)ccc2=O)cc1 [Compound 19, N-(4-Fluoro-3-((trans-3-methoxycyclobutyl)carbamoyl)phenyl)-1-(4-methoxybenzyl)-6-oxo-1,6-dihydropyridazine-3-carboxamide]		86% and 80% and 94% and 101% and 90% and 88%	14%	< 4	<4		1.0 and 1.1 and 0.9	84% and 95%			31.6 nM		78%			16%
COc1ccc(Cn2nc(C(=O)Nc3ccc(F)c(C(=O)N[C@H]4C[C@H](OC)C4)c3)ccc2=O)cc1F [Compound 20, N-(4-Fluoro-3-((trans-3-methoxycyclobutyl)carbamoyl)phenyl)-1-(3-fluoro-4-methoxybenzyl)-6-oxo-1,6-dihydropyridazine-3-carboxamide]		100% and 94% and 92% and 97%	23%	< 4	<4	6.31 nM	0.9	63% and 86%			6.31 nM					20%
COc1ccc(Cn2nc(C(=O)Nc3ccc(F)c(C(=O)NCCN4CCOCC4)c3)ccc2=O)cc1F [Compound 22, 1-[(3-Fluoro-4-methoxy-phenyl)methyl]-N-[4-fluoro-3-(2-morpholinoethylcarbamoyl)phenyl]-6-oxo-pyridazine-3-carboxamide]		99% and 93% and 95% and 97% and 98% and 91% and 96%	7% and 14% and 2%				1.0 and 0.9	80% and 81%			15.8 nM		72%			
COc1ccc(Cn2nc(C(=O)Nc3ccc(F)c(C(=O)N[C@H]4C[C@H](N5CCOCC5)C4)c3)ccc2=O)cc1F [Compound 23, N-(4-Fluoro-3-((trans-3-morpholinocyclobutyl)carbamoyl)phenyl)-1-(3-fluoro-4-methoxybenzyl)-6-oxo-1,6-dihydropyridazine-3-carboxamide]		96% and 93% and 98% and 95% and 97% and 94%	15% and 17%	< 4	<4	7.94 nM	1.2 and 1.1	86%			5.01 nM		88%			13%
COc1ccc(Cn2nc(C(=O)Nc3ccc(F)c(C(=O)N[C@H]4C[C@@H](N5CCOCC5)C4)c3)ccc2=O)cc1F [Compound 24, N-(4-Fluoro-3-((cis-3-morpholinocyclobutyl)carbamoyl)phenyl)-1-(3-fluoro-4-methoxybenzyl)-6-oxo-1,6-dihydropyridazine-3-carboxamide]		93% and 95% and 98% and 96%	6.38% and 29% and 23%	< 4	<4	7.94 nM	1.1	85% and 87%			6.31 nM		82%		16%	
COc1ccc(Cn2nc(C(=O)Nc3ccc(F)c(C(=O)N[C@H](C)CO)c3)ccc2=O)cc1F [Compound 25, (R)-N-(4-Fluoro-3-((1-hydroxypropan-2-yl)carbamoyl)phenyl)-1-(3-fluoro-4-methoxybenzyl)-6-oxo-1,6-dihydropyridazine-3-carboxamide]	398 nM	92% and 96% and 91% and 89% and 95% and 99%	0.497% and 2.25% and 10% and 4.33% and 5% and 2.24% and 9%	< 4	<4	50.1 nM	1.1 and 0.95 and 0.9 and 1.0	80% and 82% and 79%			39.8 nM and 31.6 nM and 63.1 nM		81%			
CNC(=O)c1cc(NC(=O)c2ccc(=O)n(Cc3ccc(OC)c(F)c3)n2)ccc1F [Compound 27, 1-[(3-Fluoro-4-methoxy-phenyl)methyl]-N-[4-fluoro-3-(methylcarbamoyl)phenyl]-6-oxo-pyridazine-3-carboxamide]	316 nM	99% and 88% and 89% and 96% and 90% and 97% and 94%	3.52%	< 4	<4	6.31 nM	1.0 and 0.9	60% and 80% and 81%			3.98 nM and 10 nM and 7.94 nM					6%
